This is an account of results in patent US11058665B2, “Methods for treating brain metastasis” (MEMORIAL SLOAN-KETTERING CANCER CENTER, priority 2014, dated 2021).

Counter-ions that a name gives are not always drawn.

The test system of series [1] is gap junction dye transfer from astrocytes to MDA231-BrM2 cells. As to the kind of experiment: Dye transfer assay (calcein) from astrocytes to cancer cells, flow cytometry. As to conditions: for dye transfer from astrocytes to cancer cells: MDA231-BrM2 cells, flow cytometry, FIG. 5a. Type of series: cell-based, human. The protocol: Dye Transfer and EdU Transfer Assays.
Monolayers of cancer cells or astrocytes were labeled with 2.5 gig/ml calcein Red-Orange AM dye (Life Technologies) at 37° C. for 30 min. Single cell suspensions were mixed at a ratio of 2:1 labeled:unlabeled cells for 6 h. Certain experiments used a mix of three cell populations, MDA231-BrM2 (GFP+), HBMEC (pre-labeled with Cell Proliferating Dye Fluor@670, eBioscience), and unlabeled astrocytes. Dye transfer was visualized by Zeiss LSM 5 Live confocal microscopy (20-min time-lapse) or quantified by FACSCalibur flow cytometry (BD Biosciences) at different time points. For DNA transfer assays, cancer cells were labeled overnight with EdU (10 μM, Molecular Probes) and maintained in culture for additional 3 days. Single cell suspensions of labeled cancer cells and astrocytes were mixed at 2:1 ratio for 6 h. EdU transfer was visualized using Zeiss LSM 5 Live confocal microscopy or quantified by FACSCalibur flow cytometry (BD Biosciences) following the manufacturer's instructions (Molecular Probes).

In series [2] the test system is cortical spreading depression. As to conditions: gap-junction-mediated pathophysiological process; cited from earlier work.
Series [3] relates to MDA231-BrM2 cells, H2030-BrM3 cells, KRas/p53-393N1 cells (brain metastases). The series is described as follows: Brain metastasis assay, drug given daily from day 1 after arterial inoculation of cancer cells, BLI. As to conditions: treated from day 1; MDA231-BrM2 or H2030-BrM3 in immunodeficient mice, KRas/p53-393N1 in immunocompetent mice; Tonabersat 10 mg/kg/day, meclofenamate 20 mg/kg/day i.p. Type of series: in vivo. As for the experimental part:
(§1) All experiments using animals were done in accordance to protocols approved by the MSKCC Institutional Animal Care and Use Committee. Athymic NCR nu/nu mice (NCI-Frederick), Cr:NIH bg-nu-xid mice (NCI-Frederick) and B6129SF1/J mice (Jackson Laboratory) were use at 5-6 weeks of age. For long-term brain metastasis assays we followed previously described procedures (Bos, Nguyen et al. 2010). In brief, 10^4 MDA231-BrM2 cells, 5×10^4 H2030-BrM3 cells, or 10^5 393N1 cells suspended in 100 μl of PBS were injected into the left cardiac ventricle. At the experimental endpoint, anesthetized mice (ketamine 100 mg/kg, xylazine 10 mg/kg) were injected retro-orbitally with D-luciferin (150 mg/kg), and brain colonization was quantified by ex vivo Bio-luminescent imaging (BLI). For short-term (7-day and 14-day) brain metastasis experiments, we injected 5×10^5 cells. TRITC dextran (70 KD) (Life Technologies) was intravenously injected to stain vascular structures. For inducible knockdown experiments, mice were given doxycycline hyclate (Sigma-Aldrich) in the drinking water (2 mg/mL) and the diet (Harlan) 14 days after injection of cancer cells. For lung colonization assays, 2×10^5 MDA231-BrM2 cells in 100 piL PBS were injected into the lateral tail vein. […] BLI was performed using an IVIS Spectrum Xenogen instrument (Caliper Life Sciences) and analysed using Living Image software, v. […]

In series [4] the test system is MDA231-BrM2 cells as orthotopic tumours. The series is described as follows: Orthotopic tumour implantation in mammary fat pad, BLI. Type of series: in vivo, mice. As to conditions: FIG. 15c, same treatment. The protocol:
as §1

Series [5] deals with trigeminal ganglion neuronal-satellite cell signaling. As to conditions: animal models; cited from earlier work.
Series [6] relates to MDA231-BrM2 cells (brain metastatic lesions). The series is described as follows: Established brain metastasis treatment, starting 14 days after inoculation with MDA231-BrM2 cells, BLI. As to conditions: for progression of brain metastatic lesions (BLI): treatment from day 14, 35-day end point, Tonabersat 10 mg/kg, meclofenamate 20 mg/kg, carboplatin 50 mg/kg/5 days, FIG. 5h,i. Type of series: in vivo, mice. The protocol: All experiments using animals were done in accordance to protocols approved by the MSKCC Institutional Animal Care and Use Committee. Athymic NCR nu/nu mice (NCI-Frederick), Cr:NIH bg-nu-xid mice (NCI-Frederick) and B6129SF1/J mice (Jackson Laboratory) were use at 5-6 weeks of age. For long-term brain metastasis assays we followed previously described procedures (Bos, Nguyen et al. 2010). In brief, 10^4 MDA231-BrM2 cells, 5×10^4 H2030-BrM3 cells, or 10^5 393N1 cells suspended in 100 μl of PBS were injected into the left cardiac ventricle. At the experimental endpoint, anesthetized mice (ketamine 100 mg/kg, xylazine 10 mg/kg) were injected retro-orbitally with D-luciferin (150 mg/kg), and brain colonization was quantified by ex vivo Bio-luminescent imaging (BLI). For short-term (7-day and 14-day) brain metastasis experiments, we injected 5×10^5 cells. TRITC dextran (70 KD) (Life Technologies) was intravenously injected to stain vascular structures. For inducible knockdown experiments, mice were given doxycycline hyclate (Sigma-Aldrich) in the drinking water (2 mg/mL) and the diet (Harlan) 14 days after injection of cancer cells. For lung colonization assays, 2×10^5 MDA231-BrM2 cells in 100 piL PBS were injected into the lateral tail vein. For orthotopic tumour implantation, 5×10^3 cells in 50 piL of 1:1 mix of PBS/growth factor reduced matrigel (BD Biosciences) were injected into the 4th right mammary fat pad of female mice. For drug treatment experiments, mice were intraperitoneally injected with carboplatin (Hospira) (50 mg/kg/5 days), Tonabersat (MedChem Express) (10 mg/kg/day), or meclofenamic acid sodium salt (Sigma-Aldrich) (20 mg/kg/day). Vehicle (10% DMSO in Polyethylene glycol 400) was used in control mice. BLI was performed using an IVIS Spectrum Xenogen instrument (Caliper Life Sciences) and analysed using Living Image software, v. 2.50. For brain metastasis assays, 8-10 mice were used in each group. For drug treatment experiments, mice were inoculated with cancer cells and randomly assigned to treatment groups. Gap junction modulators and chemotherapeutic agents were blindly administered in the MSKCC Antitumour Assessment Core.

Series [7] deals with MDA231-BrM2 cells as lung metastatic lesions. As to the kind of experiment: Lung colonization assay, MDA231-BrM2 cells, BLI. Type of series: in vivo, mice. As to conditions: FIG. 15d; same treatment from day 1. As for the experimental part: as §1
For series [8] the following is noted: cited from earlier work.
Series [9] concerns release of IFNα and TNFα in co-cultures of astrocytes and cancer cells. The series is described as follows: ELISA of IFNα and TNFα in conditioned media from MDA231-BrM2 cell and astrocyte co-cultures. Type of series: cell-based, human. As to conditions: FIG. 5b. The protocol:
Cancer Cell and Astrocyte Co-Culture Experiments.
Astrocytes and cancer cells were mixed at ratio of 1:1. For apoptosis assays, overnight co-cultures were treated with 500 ng/ml sFasL (Peprotech) in serum free media, 500 nM carboplatin (Sigma-Aldrich) or 25 nM Paclitaxel (Sigma-Aldrich) for 24 h. Single cell suspensions were stained with APC-conjugated cleaved caspase 3 antibody (Cell Signaling), apoptotic GFP+ cancer cells were detected by flow cytometery. For translating ribosome affinity purification (TRAP), EGFP-L10a expressing cancer cells were co-cultured with astrocytes for 24 h. Following previously published protocols, (Heiman, Schaefer et al. 2008, Zhang, Jin et al. 2013) mRNA purified from cancer cells were was used for library construction with TruSeq RNA Sample Prep Kit v2 (Illumina) following the manufacturer's instructions. Samples were barcoded and run on a Hiseq 2000 platform in a 50 bp/50 bp paired-end run, using the TruSeq SBS Kit v3 (Illumina). An average of 50 million paired reads were generated per sample. For conditioned media analysis, media were collected after 24 h, and cytokines in the conditioned media were either identified using Human Cytokine Array (R&D systems) or measured by IFNα or TNFα ELISA kits (R&D systems). To detect the activity of IFNα or TNFα in the collected conditioned media, cancer cells were treated with the collected conditioned media for 2 h and phosphorylation status of STAT1 or NF-κB p65 was determined by western blotting. For cGAMP and […] activation experiments, cancer cells and astrocytes were co-cultured for 18 h. The phosphorylation status of TBK1, IRF3 was determined by western immunoblotting. Nuclear translocation of IRF3 was determined by immunofluorescence staining with Zeiss LSM 5 Live confocal microscopy. cGAMP levels were determined by LC-MS/MS.
A general note: In an ELISA, binding on a coated surface is turned into a signal by an enzyme label.

Series [10] concerns unique stereoselective binding site in astrocytes. As to conditions: cited from earlier work.
For series [11] the following is noted: in vivo; cited from earlier work.
The subject of series [12] is brain metastases from breast or lung cancer. As to conditions: cited from earlier work.
For series [13] the following is noted: after systemic administration; cited from earlier work.
Another series relates to Cx43 gap junction. As to conditions: cited from earlier work.
A further series relates to epileptogenesis. As to conditions: in vivo; cited from earlier work.

For the compound `CC(=O)c1ccc2c(c1)[C@H](NC(=O)c1ccc(F)c(Cl)c1)[C@H](O)C(C)(C)O2` [Tonabersat], in [1], the “dye transfer from astrocytes to cancer cells” value is “inhibited dye transfer”. Also, the cortical spreading depression entry in series [2] was “inhibits”. The “emergence of brain metastases (BLI)” value in series [3] is reported as “prevented the emergence of brain metastases”. The “growth of MDA231-BrM2 cells as orthotopic tumours” value in series [4] was “did not restrict growth”. Moreover, in series [5], the “trigeminal ganglion neuronal-satellite cell signaling” value is listed as “inhibits”. In addition, in series [6], the “progression of brain metastatic lesions (BLI)” value (“progression” below) was “significantly inhibited progression of metastatic lesions”. Also, the “growth of MDA231-BrM2 cells as lung metastatic lesions” value in [7] is recorded as “did not restrict growth”. In addition, in series [8] (patients with migraine), the “tolerability and safety in patients with migraine” value is “systemically well-tolerated and safe”. Further, in [9], the “release of IFNα in co-cultures” value was “inhibited” and the “release of TNFα in co-cultures” value is given as “inhibited”. In addition, in series [10], the “binding to site in astrocytes” value is “binds to a unique stereoselective binding site in astrocytes”. In addition, the oral bioavailability result in series [11] is on record as “orally bioavailable”.

For the compound `CC1(C)[C@@H](OC(=O)CCC(=O)O)CC[C@]2(C)[C@H]3C(=O)C=C4[C@@H]5C[C@@](C)(C(=O)O)CC[C@]5(C)CC[C@@]4(C)[C@]3(C)CC[C@@H]12` [carbenoloxone, carbenoxolone], the “dye transfer from astrocytes to MDA231-BrM2 cells, compared with Cx43 depletion” value in series [1] (Carbenoxolone 50 uM, FIG. 8b) is on record as “extent of dye-transfer inhibition after Cx43 depletion was comparable”.

As for `N.N.O=C([O-])C1(C(=O)[O-])CCC1.[Pt+2]` [carboplatin], the “brain metastasis (BLI) in inducible shRNA experiment” value in series [6] (carboplatin alone 50 mg/kg/5 days starting on day 14, compared with depletion of Cx43 or PCDH7, FIG. 5f,g) is on record as “inhibited brain metastasis to a similar extent as depletion of Cx43 or PCDH7”. The “progression” value in series [6] is reported as “minimally inhibited brain metastasis growth”. Moreover, the “overall survival in patients with brain metastases” value in series [12] is recorded as “modest improvement in overall survival”. Besides, in series [13], the “passage of the BBB” value is on record as “crosses the BBB”.

With `Cc1ccc(Cl)c(Nc2ccccc2C(=O)O)c1Cl` [meclofenamate, meclofenamic acid sodium salt], in series [1], the “dye transfer from astrocytes to cancer cells” value is given as “inhibited dye transfer”. Moreover, the “emergence of brain metastases (BLI)” value in series [3] is “prevented the emergence of brain metastases”. The “growth of MDA231-BrM2 cells as orthotopic tumours” value in series [4] is listed as “did not restrict growth”. In series [6], the “progression” value is “significantly inhibited progression of metastatic lesions”. In addition, the “growth of MDA231-BrM2 cells as lung metastatic lesions” value in series [7] is “did not restrict growth”. The systemic tolerability result in series [8] (in vivo) is “well tolerated systemically”. Also, in [9], the “release of IFNα in co-cultures” value is listed as “inhibited” and the “release of TNFα in co-cultures” value is “inhibited”. For the same compound, the oral bioavailability entry in series [11] is listed as “orally bioavailable”. Besides, the “Cx43 gap junction gating” value with Cx43 gap junction is given as “inhibits Cx43 gap junction gating”. In addition, the “passage of the BBB” value in series [13] is given as “passes the BBB”. The “epileptogenesis in animal models” value in the series on epileptogenesis is listed as “inhibits epileptogenesis”.
